Data on three compounds can be found in ChEMBL document CHEMBL1143362, “Development of dual-acting prodrugs for circumventing multidrug resistance” (Bioorg Med Chem Lett, 2009).

The source made the active and inactive calls. The rule behind the calls is not given here.

For series [1], the system named is Mus musculus. Put plainly: Toxicity in nude mouse assessed as body weight change at 100.8 mg/kg, iv measured daily for 13 days. As to conditions: in vivo, 312 h. On the set-up: dose 100.8 mg/kg, route intravenous. In kind it is organism-based.
Series [2] has as its system Mus musculus. The series is described as follows: Toxicity in NMRI nude mouse xenografted with adriablastin-resistant human MT3 cells expressing p-glycoprotein assessed as body weight loss at 5 mg/kg, ip administered on day 12, 13, 19, 20 prior to doxorubicin challenge of 6 mg/kg, iv on day 13 and 20. In kind it is organism-based. The conditions noted are these: in vivo. (In general: Xenograft models place foreign cells or tissue in a host animal.)

Series [3] concerns MT3. The series is described as follows: Potentiation of doxorubicin-induced cytotoxicity in adriablastin-resistant human MT3 cells expressing p-glycoprotein xenografted in NMRI nude mouse at 5 mg/kg, ip administered on day 12, 13, 19, 20 prior to doxorubicin challenge of 6 mg/kg, iv on day 13 and 20. It is filed as functional, organism-based.
Series [4] concerns MT3. Put plainly: Antitumor activity against adriablastin-resistant human MT3 cells expressing p-glycoprotein xenografted in NMRI nude mouse at 6 mg/kg, iv administered on day 13 and 20. In kind it is functional, organism-based. On the set-up: dose 6 mg/kg.

In the case of `CCOC/C=C/c1ccc(-c2nc(-c3ccc(N(C)C)cc3)c(-c3ccc(NC(=O)CCNC(=O)OCc4ccc(NC(=O)[C@H](CCCCN)NC(=O)[C@H](Cc5ccccc5)NC(=O)CC[C@H](NC(=O)CCCCCN5C(=O)C=CC5=O)C(=O)N[C@@H](Cc5ccccc5)C(=O)N[C@@H](CCCCN)C(=O)Nc5ccc(COC(=O)N[C@H]6C[C@H](O[C@H]7C[C@@](O)(C(=O)CO)Cc8c(O)c9c(c(O)c87)C(=O)c7c(OC)cccc7C9=O)O[C@@H](C)[C@H]6O)cc5)cc4)cc3)[nH]2)cc1.O=C(O)C(F)(F)F.O=C(O)C(F)(F)F`, the Activity entry with Mus musculus [1] is reported as “Non-toxic”.
For `CCOC/C=C/c1ccc(-c2nc(-c3ccc(N(C)C)cc3)c(-c3ccc(NC(=O)CCN)cc3)[nH]2)cc1`, in the series with Mus musculus [2], the Activity is listed as -23%. For the same compound, in the series on MT3 [3], the result was Active.
`COc1cccc2c1C(=O)c1c(O)c3c(c(O)c1C2=O)C[C@@](O)(C(=O)CO)C[C@@H]3O[C@H]1C[C@H](N)[C@H](O)[C@H](C)O1`: in the series with MT3 [4], the result was inactive.
